Assay results taken from ChEMBL document CHEMBL3991601, “The target landscape of clinical kinase drugs” (Science, 2017).
Activity calls are given as the source filed them.

Key:
[1] = molecular target: Bone morphogenetic protein receptor type-1A (Homo sapiens, UniProt P36894)
[2] = molecular target: Serine/threonine-protein kinase/endoribonuclease IRE1 (Homo sapiens, UniProt O75460)
[3] = molecular target: T1, Electron transfer flavoprotein subunit beta (Homo sapiens, UniProt P38117)
T1 sequence (P38117 whole entry): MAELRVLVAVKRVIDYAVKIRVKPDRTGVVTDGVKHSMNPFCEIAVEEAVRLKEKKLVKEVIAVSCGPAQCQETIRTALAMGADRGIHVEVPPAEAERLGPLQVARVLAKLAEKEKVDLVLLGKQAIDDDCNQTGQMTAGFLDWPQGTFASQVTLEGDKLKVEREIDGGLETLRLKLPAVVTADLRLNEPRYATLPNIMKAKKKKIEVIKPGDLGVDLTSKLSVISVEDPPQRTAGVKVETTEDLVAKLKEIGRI

[4] = molecular target: Glycogen synthase kinase-3 alpha (Homo sapiens, UniProt P49840)
[5] = molecular target: Mitogen-activated protein kinase kinase kinase 4 (Homo sapiens, UniProt Q9Y6R4)
[6] = molecular target: T2, RNA cytidine acetyltransferase (Homo sapiens, UniProt Q9H0A0)
T2 sequence (Q9H0A0 whole entry): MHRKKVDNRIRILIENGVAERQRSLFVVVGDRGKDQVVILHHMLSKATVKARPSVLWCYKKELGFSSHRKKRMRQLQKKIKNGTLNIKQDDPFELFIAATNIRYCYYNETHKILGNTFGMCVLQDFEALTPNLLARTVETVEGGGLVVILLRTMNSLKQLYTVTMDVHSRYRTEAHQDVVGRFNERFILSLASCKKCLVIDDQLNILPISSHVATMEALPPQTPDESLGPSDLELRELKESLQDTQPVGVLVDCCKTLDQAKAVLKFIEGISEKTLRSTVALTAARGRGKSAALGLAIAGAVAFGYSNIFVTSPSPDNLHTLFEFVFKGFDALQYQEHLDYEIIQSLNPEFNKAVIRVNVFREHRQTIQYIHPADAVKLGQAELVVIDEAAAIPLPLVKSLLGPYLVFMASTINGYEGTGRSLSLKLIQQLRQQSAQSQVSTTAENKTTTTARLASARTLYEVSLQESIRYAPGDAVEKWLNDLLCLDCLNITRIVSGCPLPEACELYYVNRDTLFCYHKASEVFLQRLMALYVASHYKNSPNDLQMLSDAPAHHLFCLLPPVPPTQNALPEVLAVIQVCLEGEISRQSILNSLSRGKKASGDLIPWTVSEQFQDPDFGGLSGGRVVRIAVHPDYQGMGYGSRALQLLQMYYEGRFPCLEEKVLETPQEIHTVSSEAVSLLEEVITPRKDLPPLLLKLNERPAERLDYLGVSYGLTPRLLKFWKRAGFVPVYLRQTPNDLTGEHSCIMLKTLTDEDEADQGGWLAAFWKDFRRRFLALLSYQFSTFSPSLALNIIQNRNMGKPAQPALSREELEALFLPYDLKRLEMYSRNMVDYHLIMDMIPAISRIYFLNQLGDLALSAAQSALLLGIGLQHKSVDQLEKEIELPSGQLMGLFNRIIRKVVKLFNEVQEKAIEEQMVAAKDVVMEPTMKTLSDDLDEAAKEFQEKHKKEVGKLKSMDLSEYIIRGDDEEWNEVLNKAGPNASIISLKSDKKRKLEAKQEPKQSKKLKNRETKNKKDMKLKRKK

[7] = molecular target: T3, Serine/threonine-protein kinase STK11 (Homo sapiens, UniProt Q15831)
T3 sequence (Q15831 whole entry): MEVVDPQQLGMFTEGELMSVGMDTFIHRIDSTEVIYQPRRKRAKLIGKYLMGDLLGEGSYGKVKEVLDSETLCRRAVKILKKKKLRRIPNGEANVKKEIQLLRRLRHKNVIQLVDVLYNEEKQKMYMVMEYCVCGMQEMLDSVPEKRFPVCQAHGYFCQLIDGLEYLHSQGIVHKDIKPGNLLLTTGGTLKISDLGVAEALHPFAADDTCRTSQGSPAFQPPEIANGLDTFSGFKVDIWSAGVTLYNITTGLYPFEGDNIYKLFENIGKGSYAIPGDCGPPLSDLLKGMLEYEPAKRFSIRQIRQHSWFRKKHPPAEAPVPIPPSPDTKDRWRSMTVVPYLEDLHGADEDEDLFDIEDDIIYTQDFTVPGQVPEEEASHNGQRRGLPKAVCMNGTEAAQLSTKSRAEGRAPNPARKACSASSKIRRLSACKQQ

[8] = molecular target: T4, Serine/threonine-protein kinase TAO1 (Homo sapiens, UniProt Q7L7X3)
T4 sequence (Q7L7X3 whole entry): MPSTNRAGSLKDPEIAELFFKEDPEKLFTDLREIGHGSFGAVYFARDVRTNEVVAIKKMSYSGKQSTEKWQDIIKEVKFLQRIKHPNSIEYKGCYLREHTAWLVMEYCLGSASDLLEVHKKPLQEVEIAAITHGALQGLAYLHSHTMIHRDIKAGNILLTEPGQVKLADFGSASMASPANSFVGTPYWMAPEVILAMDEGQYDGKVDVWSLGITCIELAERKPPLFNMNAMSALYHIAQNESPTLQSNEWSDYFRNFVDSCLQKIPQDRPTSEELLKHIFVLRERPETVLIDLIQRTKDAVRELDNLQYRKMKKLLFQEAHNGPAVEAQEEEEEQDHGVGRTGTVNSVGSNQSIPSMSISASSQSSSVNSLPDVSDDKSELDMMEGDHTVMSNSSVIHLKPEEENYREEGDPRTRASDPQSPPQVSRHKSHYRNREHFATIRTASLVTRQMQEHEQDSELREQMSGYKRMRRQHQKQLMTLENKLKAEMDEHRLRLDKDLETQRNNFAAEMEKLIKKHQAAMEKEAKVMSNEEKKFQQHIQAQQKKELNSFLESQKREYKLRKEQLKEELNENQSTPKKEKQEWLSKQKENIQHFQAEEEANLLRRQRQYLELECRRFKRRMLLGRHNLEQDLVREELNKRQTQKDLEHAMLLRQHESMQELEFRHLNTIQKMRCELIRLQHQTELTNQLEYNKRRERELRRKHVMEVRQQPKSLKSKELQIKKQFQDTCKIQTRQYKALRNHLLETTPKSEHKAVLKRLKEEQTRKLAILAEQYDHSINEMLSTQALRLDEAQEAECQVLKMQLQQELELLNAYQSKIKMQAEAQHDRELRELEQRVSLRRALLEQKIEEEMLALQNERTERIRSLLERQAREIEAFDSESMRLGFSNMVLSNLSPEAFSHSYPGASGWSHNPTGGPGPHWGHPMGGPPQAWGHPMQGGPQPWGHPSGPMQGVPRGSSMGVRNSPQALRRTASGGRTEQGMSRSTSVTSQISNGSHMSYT
Note: in the data inactive means no Kd found up to 30 µM.

Chain of Glycogen synthase kinase-3 alpha (P49840 whole entry): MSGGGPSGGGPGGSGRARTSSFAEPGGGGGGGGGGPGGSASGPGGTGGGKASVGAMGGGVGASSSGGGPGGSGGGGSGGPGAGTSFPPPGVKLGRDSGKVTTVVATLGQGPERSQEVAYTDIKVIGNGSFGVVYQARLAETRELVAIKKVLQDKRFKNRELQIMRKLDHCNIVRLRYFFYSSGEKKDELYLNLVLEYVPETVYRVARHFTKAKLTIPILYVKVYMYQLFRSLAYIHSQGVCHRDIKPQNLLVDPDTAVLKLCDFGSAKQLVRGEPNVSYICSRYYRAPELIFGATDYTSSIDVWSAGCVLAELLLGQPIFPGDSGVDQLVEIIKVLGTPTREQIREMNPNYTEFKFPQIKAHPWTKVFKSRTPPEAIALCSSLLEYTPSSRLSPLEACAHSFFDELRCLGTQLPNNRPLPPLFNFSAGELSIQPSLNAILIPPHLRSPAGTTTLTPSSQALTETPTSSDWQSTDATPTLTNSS
Chain of Mitogen-activated protein kinase kinase kinase 4 (Q9Y6R4 whole entry): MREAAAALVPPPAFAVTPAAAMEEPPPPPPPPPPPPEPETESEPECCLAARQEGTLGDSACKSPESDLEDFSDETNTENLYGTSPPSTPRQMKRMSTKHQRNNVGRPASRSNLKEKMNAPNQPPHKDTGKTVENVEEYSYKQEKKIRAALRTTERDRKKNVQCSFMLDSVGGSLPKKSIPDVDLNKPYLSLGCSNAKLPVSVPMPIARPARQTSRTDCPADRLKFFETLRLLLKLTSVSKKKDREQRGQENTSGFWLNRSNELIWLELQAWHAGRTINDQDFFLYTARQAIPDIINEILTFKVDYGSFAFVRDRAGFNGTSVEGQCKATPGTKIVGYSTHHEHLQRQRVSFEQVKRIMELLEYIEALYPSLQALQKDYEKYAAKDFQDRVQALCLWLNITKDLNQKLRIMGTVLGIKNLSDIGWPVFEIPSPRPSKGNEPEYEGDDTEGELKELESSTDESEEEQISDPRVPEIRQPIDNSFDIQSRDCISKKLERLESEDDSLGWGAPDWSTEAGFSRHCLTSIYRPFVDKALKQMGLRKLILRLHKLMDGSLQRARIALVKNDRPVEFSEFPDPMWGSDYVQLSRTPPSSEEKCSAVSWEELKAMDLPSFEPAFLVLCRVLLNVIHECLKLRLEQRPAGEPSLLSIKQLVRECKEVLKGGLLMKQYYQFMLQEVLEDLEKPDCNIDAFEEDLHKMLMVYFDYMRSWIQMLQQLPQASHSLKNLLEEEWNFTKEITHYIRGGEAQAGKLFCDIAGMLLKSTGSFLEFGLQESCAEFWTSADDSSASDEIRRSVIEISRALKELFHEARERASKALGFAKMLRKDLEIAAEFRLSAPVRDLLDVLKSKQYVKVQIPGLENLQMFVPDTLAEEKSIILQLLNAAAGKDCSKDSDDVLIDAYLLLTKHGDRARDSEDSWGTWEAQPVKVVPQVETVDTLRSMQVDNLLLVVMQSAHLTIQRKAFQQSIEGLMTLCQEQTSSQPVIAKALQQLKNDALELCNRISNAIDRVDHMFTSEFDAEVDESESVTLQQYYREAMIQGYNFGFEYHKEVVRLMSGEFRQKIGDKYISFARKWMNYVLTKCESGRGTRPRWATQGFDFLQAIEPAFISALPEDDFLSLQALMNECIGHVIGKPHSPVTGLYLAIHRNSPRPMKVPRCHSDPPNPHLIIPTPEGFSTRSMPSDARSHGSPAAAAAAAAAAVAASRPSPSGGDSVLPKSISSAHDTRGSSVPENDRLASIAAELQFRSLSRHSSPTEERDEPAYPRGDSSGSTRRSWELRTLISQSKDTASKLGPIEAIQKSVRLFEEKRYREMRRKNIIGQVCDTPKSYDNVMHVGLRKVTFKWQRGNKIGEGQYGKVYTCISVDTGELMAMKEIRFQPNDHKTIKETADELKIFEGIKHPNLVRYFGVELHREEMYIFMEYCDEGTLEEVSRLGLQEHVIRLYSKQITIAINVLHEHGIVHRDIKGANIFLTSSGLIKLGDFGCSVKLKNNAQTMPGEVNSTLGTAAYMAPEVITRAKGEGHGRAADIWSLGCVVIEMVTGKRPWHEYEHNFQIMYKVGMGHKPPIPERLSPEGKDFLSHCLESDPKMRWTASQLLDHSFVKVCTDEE
Chain of Serine/threonine-protein kinase/endoribonuclease IRE1 (O75460 whole entry): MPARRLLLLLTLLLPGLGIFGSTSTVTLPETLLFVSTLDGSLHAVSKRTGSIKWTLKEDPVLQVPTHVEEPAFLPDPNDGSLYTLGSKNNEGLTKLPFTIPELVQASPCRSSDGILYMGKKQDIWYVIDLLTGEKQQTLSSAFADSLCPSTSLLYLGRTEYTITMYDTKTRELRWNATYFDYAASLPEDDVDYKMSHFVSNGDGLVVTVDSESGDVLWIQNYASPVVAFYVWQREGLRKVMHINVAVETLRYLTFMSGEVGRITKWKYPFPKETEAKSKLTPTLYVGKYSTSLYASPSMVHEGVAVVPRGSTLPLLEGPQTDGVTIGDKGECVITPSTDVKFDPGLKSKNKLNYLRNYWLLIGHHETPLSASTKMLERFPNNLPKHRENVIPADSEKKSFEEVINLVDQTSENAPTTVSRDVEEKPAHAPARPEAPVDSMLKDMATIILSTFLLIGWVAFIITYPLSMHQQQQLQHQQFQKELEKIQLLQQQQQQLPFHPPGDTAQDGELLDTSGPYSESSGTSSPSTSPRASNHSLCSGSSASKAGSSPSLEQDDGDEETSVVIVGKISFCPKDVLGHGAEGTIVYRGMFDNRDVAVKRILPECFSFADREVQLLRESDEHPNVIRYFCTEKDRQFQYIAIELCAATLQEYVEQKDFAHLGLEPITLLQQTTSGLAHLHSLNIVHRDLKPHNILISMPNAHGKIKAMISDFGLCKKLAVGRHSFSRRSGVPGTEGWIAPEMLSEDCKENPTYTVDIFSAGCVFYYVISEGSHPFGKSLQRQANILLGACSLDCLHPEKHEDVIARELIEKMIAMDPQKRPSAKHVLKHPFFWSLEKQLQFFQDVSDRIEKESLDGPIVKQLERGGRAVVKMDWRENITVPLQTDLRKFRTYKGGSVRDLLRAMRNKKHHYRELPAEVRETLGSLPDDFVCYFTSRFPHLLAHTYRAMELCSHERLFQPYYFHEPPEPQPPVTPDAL
Chain of Bone morphogenetic protein receptor type-1A (P36894 whole entry): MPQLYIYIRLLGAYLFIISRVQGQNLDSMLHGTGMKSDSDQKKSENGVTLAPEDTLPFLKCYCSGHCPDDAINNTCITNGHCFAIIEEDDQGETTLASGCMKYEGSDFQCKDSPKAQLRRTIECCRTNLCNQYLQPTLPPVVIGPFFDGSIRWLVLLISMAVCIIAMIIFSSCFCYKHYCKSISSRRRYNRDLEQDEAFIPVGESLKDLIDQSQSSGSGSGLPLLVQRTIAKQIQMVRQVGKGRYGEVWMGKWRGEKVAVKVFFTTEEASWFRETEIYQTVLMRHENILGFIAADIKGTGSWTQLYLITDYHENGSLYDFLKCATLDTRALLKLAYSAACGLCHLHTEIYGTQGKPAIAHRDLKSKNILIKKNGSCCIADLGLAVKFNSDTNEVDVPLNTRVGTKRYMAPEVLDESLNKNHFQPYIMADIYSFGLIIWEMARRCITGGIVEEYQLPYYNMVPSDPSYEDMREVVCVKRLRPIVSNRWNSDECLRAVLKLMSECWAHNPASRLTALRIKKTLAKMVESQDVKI

Kd [1] | Kd [2] | Kd [3] | Kd [4] | Kd [5] | Kd [6] | Kd [7] | Kd [8] | SMILES
> 30 µM (inactive) | 12.2 µM (active) | > 30 µM (inactive) | > 30 µM (inactive) | > 30 µM (inactive) | > 30 µM (inactive) | > 30 µM (inactive) | > 30 µM (inactive) | COc1cc(N2CCC(N3CCN(C)CC3)CC2)ccc1Nc1ncnc(Nc2ccccc2S(=O)(=O)C(C)C)n1 [ASP-3026]
> 30 µM (inactive) | > 30 µM (inactive) | > 30 µM (inactive) | > 30 µM (inactive) | > 30 µM (inactive) | > 30 µM (inactive) | > 30 µM (inactive) | > 30 µM (inactive) | O=c1sn(-c2cccc3ccccc23)c(=O)n1Cc1ccccc1 [TIDEGLUSIB]
> 30 µM (inactive) | > 30 µM (inactive) | > 30 µM (inactive) | > 30 µM (inactive) | > 30 µM (inactive) | > 30 µM (inactive) | > 30 µM (inactive) | > 30 µM (inactive) | CNS(=O)(=O)Nc1nccc(Cc2c(C)c3ccc(Oc4ncccn4)cc3oc2=O)c1F [AVUTOMETINIB]
> 30 µM (inactive) | > 30 µM (inactive) | > 30 µM (inactive) | > 30 µM (inactive) | > 30 µM (inactive) | > 30 µM (inactive) | > 30 µM (inactive) | > 30 µM (inactive) | C[C@@H](Nc1cc(F)cc(F)c1)c1cc(C(=O)N(C)C)cc2c(=O)cc(N3CCOCC3)oc12 [AZD-8186]
> 30 µM (inactive) | > 30 µM (inactive) | > 30 µM (inactive) | > 30 µM (inactive) | > 30 µM (inactive) | > 30 µM (inactive) | > 30 µM (inactive) | > 30 µM (inactive) | CN1CCC(CNc2ccc3ncc(-c4cccc(OC(F)(F)F)c4)n3n2)CC1 [SGI-1776]
> 30 µM (inactive) | > 30 µM (inactive) | > 30 µM (inactive) | > 30 µM (inactive) | > 30 µM (inactive) | > 30 µM (inactive) | > 30 µM (inactive) | > 30 µM (inactive) | CCCS(=O)(=O)Nc1ccc(F)c(C(=O)c2c[nH]c3ncc(-c4ccc(Cl)cc4)cc23)c1F [VEMURAFENIB]
